In brackets after ≈: the same amount, converted by molar mass. Like-named read-outs stand apart in the source and are kept apart here.

What all share (assay type): cell-based
The test system of data set [1] is Mycobacterium tuberculosis strain H37Rv. The data set is described as follows: Mycobacterial growth inhibition assay (colorimetric MTT micro assay, MIC). Particulars: read-out: Anti-Mtb MIC. A general note: Tetrazolium dyes change colour on reduction, which living cells bring about.
Data set [2] in a line: Cytotoxicity evaluation on Vero cell line (MTT). Particulars: African green monkey, Vero cells, read-out: Anti-VERO CC50. The procedure:
(§1) The biological activity of the compounds of the present invention were evaluated. The activity against mycobacteria (Mtb) was assessed by minimum inhibitory concentration values (MIC, µM) determination. The selectivity index (SI) is defined as: SI = (CC50)/(MIC) [formula] wherein CC50 refers to the half maximal cytotoxic concentration of compounds towards particular eukaryotic cells, either for HCT116 cells and/or VERO cells; MIC refers to the minimum inhibitory concentration of the compounds towards mycobacteria.
Cytotoxicity evaluation of the tested molecules by MTT assay was performed on the Vero cell line. Briefly, cells (5.10^4 cells/mL) in 100 µL of complete medium [MEM supplemented with 10% fetal calf serum (FCS), 2 mM L-glutamine and antibiotics (100U/mL penicillin and 100 µg/mL streptomycin)] were seeded into each well of 96-well plates and incubated at 37 °C in a humidified 5% CO2 with 95% air atmosphere. After a 24 h incubation, 100 µL of medium with various product concentrations and appropriate controls were added and the plates were incubated for 72 h at 37 °C. Each plate-well was then microscope-examined for detecting possible precipitate formation before the medium was aspirated from the wells. 100 µL of MTT solution (0.5 mg/mL in complete MEM) were then added to each well. Cells were incubated for 1 h at 37 °C and the MTT solution was then removed, and DMSO (100 µL/well) was added to dissolve the resulting formazan crystals. Plates were shaken vigorously (300 rpm) for 5 min. The absorbance was measured at 570 nm with a microplate spectrophotometer (BIOTEK Eon). DMSO was used as blank and SDS as positive control. CC50 were calculated by non-linear regression analysis processed on dose-response curves, using TableCurve 2D V5 software.

Data set [3] in a line: Cytotoxicity evaluation on HCT-116 cell line (SRB). Particulars: human, HCT-116 colon cancer cells, HCT-116 cells, 72 hours treatment, read-out: Anti-HCT116 CC50. The procedure:
as §1
Human HCT-116 colon cancer cells were seeded in 96-well plates (2500 cells/well) 24 hours before being treated for 72 hours with the tested compounds. Cells were grown and treated in DMEM 10% FBS. For each compound, 11 concentrations, corresponding to twofold serial dilutions from the maximum concentration, were evaluated, with each concentration tested in duplicate. DMSO was set at 0.5% final concentration in each well, including in the untreated conditions. At the end of the treatment, cells were fixed 1 hour at 4°C by addition of cold 10 % trichloroacetic acid to a final 3.33 % concentration, then washed 4 times with water. The plates were dried and the cells stained for 30 minutes with 0.057 % (wt/vol) Sulforhodamine B (SRB) in 1% acetic acid, then washed 4 times with 1% acetic acid and dried. The dye was resuspended by a 1 h 30 incubation in 200 µL of 10 mM Tris-base and the absorbance at 490 nm measured with a plate reader (µquant, Bio-tek). For normalization, the background value was subtracted to each value, the duplicates averaged and the untreated condition set to 100% cell viability. CC50 were computed from at least three independent experiments using the GraphPad Prism software using a non-linear regression to a four-parameter logistic curve (log[inhibitor] vs response; variable slope).

[4] abbreviates: M. tuberculosis H37Rv, 7H9 broth, 6 days incubation then MTT 24 h.

`CCCCCCCCCCC[C@@H](O)C#CCO` [(R)-1, (R)-Pentadec-2-yne-1,4-diol]: the MIC (in general, the least concentration at which growth counts as inhibited) in data set [1] (setting [4]) turned out to be 1.25 µM (≈ 0.3 µg/mL).

For `CCCCCCCCCCC[C@@H](O)C#C[C@H](O)CC` [(R,R)-6, (3R,6R)-heptadec-4-yne-3,6-diol], the MIC in data set [1] (setting [4]) stood at 2.5 µM (≈ 0.671 µg/mL).

Regarding `CCCCCCCCCCC[C@H](O)C#C[C@H](O)CC` [(R,S)-6, (3R,6S)-heptadec-4-yne-3,6-diol], the MIC in data set [1] (setting [4]) amounted to 2.5 µM (≈ 0.671 µg/mL).

As for `CCCCCCCCCCC[C@H](O)C#CCO` [(S)-1, (S)-Pentadec-2-yne-1,4-diol], the minimum inhibitory concentration (MIC) in data set [1] (setting [4]) amounted to 1.25 µM (≈ 0.3 µg/mL).

As to `CCCCCCCCCCC[C@@H](O)C#C[C@@H](O)CC` [(S,R)-6, (3S,6R)-heptadec-4-yne-3,6-diol], the minimal inhibitory concentration (MIC) in data set [1] (setting [4]) came to 2.5 µM (≈ 0.671 µg/mL).

For the compound `CCCCCCCCCCC[C@H](O)C#C[C@@H](O)CC` [(S,S)-6, (3S,6S)-heptadec-4-yne-3,6-diol], the MIC in data set [1] (setting [4]) was 2.5 µM (≈ 0.671 µg/mL).

In the case of `C=CC(O)C#CC(O)CCCCCCCCCCC` (centres unmarked) [Compound 2, Heptadec-1-en-4-yne-3,6-diol], the values for the half-maximal cytotoxic concentration (CC50) at 72 h in data set [2] and in data set [3] were 7.6 µM and 2 µM, respectively. The MIC in data set [1] was found to be 1.25 µM (≈ 0.333 µg/mL).

For the compound `C=C=CC(O)C#CC(O)CCCCCCCCCCC` (centres unmarked) [Compound 3, Octadeca-1,2-dien-5-yne-4,7-diol], the results for the CC50 at 72 h in data set [2] and in data set [3] were 8 µM and 9 µM, respectively. Moreover, the MIC in data set [1] came out at 2.5 µM (≈ 0.696 µg/mL).

For the compound `C#CC(O)C#CC(O)CCCCCCCCCCC` (centres unmarked) [Compound 4, Heptadeca-1,4-diyne-3,6-diol], the CC50 (usually the concentration at which the toxic effect on the cells reaches its halfway point) at 72 h in data set [2] was determined as 2.5 µM; in data set [3], 4 µM. Further, the MIC in data set [1] was 0.3 µM (≈ 0.0793 µg/mL).

Regarding `CCCCCCCCCCCC(O)C#CC(O)c1ccccc1` (centres unmarked) [Compound 5, 1-Phenylpentadec-2-yne-1,4-diol], the CC50 at 72 h in data set [2] amounted to 46.5 µM; in data set [3], 50 µM. Also, in data set [1] (setting [4]), the MIC came out at 1.25 µM (≈ 0.396 µg/mL).

Regarding `CCCCCCCCCCCC(O)C#CC(O)C1CC1` (centres unmarked) [Compound 7, 1-Cyclopropylpentadec-2-yne-1,4-diol], the figures for the CC50 at 72 h in data set [2] and in data set [3] were 43.9 µM and 50 µM, respectively. Moreover, the MIC in data set [1] (setting [4]) worked out at 0.3 µM (≈ 0.0841 µg/mL).

For `CCCCCCCCCCCC(O)C#CC(O)C(C)(C)C` (centres unmarked) [Compound 8, 2,2-Dimethylheptadec-4-yne-3,6-diol], in data set [3], the CC50 at 72 h stood at 20 µM. Also, the MIC in data set [1] (setting [4]) was 5 µM (≈ 1.48 µg/mL).

Take `CCCCCCCCCCCC(O)C#CC(O)C(CC)CC` (centres unmarked) [Compound 9, 3-Ethyloctadec-5-yne-4,7-diol]: the CC50 at 72 h in data set [3] came to 20 µM. The minimum inhibitory concentration (MIC) in data set [1] (setting [4]) was determined as 5 µM (≈ 1.55 µg/mL).

Regarding `CCCCCCCCCCCC(O)C#CC(O)C1CCCC1` (centres unmarked) [Compound 10, 1-Cyclopentylpentadec-2-yne-1,4-diol], the CC50 at 72 h in data set [3] is 20 µM. In data set [1] (setting [4]), the minimal inhibitory concentration (MIC) is 5 µM (≈ 1.54 µg/mL).

On to `CCCCCCCCCCCC(O)C#CC(O)C1CCCCC1` (centres unmarked) [Compound 11, 1-Cyclohexylpentadec-2-yne-1,4-diol], for which the CC50 at 72 h in data set [3] turned out to be 50 µM. Moreover, in data set [1] (setting [4]), the minimum inhibitory concentration (MIC) amounted to 5 µM (≈ 1.61 µg/mL).

With `C=C=CC(O)C#CCC(O)CCCCCCCCCC` (centres unmarked) [Compound 13, Octadeca-1,2-dien-5-yne-4,8-diol], the CC50 at 72 h in data set [3] was found to be 12 µM. The minimal inhibitory concentration (MIC) in data set [1] worked out at 0.6 µM (≈ 0.167 µg/mL).

Consider `C=C=CC(O)C#CCCCCCCCCCCCC` (centres unmarked) [Compound 19, Octadeca-1,2-dien-5-yn-4-ol], for which the CC50 at 72 h in data set [3] stood at 2.7 µM. For the same compound, the MIC in data set [1] (setting [4]) was 2.5 µM (≈ 0.656 µg/mL).

In the case of `CCCCCCCCCCCCC#CC(O)C(C)(C)C` (centres unmarked) [Compound 24, 2,2-Dimethylheptadec-4-yn-3-ol], the 50% cytotoxic concentration (CC50) at 72 h in data set [3] is 60 µM. The minimal inhibitory concentration (MIC) in data set [1] (setting [4]) is above 10 µM.

Take `CCCCCCCCCCCCC#CC(O)C(CC)CC` (centres unmarked) [Compound 25, 3-Ethyloctadec-5-yn-4-ol]: the CC50 at 72 h in data set [3] was 125 µM. Also, in data set [1] (setting [4]), the minimal inhibitory concentration (MIC) is above 10 µM.

On to `CCCCCCCCCCCCC#CC(O)C1CCCC1` (centres unmarked) [Compound 26, 1-Cyclopentylpentadec-2-yn-1-ol], for which the CC50 at 72 h in data set [3] came out at 100 µM. For the same compound, the MIC in data set [1] (setting [4]) is above 10 µM.

As to `CCCCCCCCCCCCC#CC(O)C1CCCCC1` (centres unmarked) [Compound 27, 1-Cyclohexylpentadec-2-yn-1-ol], the CC50 at 72 h in data set [3] was found to be 60 µM. Further, in data set [1] (setting [4]), the MIC is 10 µM (≈ 3.07 µg/mL).

Source of the values: patent EP4613730A1, “LIPIDIC ALKYNYLCARBINOLS WITH ANTI-BACTERIAL AND ANTI-TUBERCULOSIS ACTIVITY” (priority 2024, dated 2025).
